# Entries after “also recorded” stand apart in the source; their conditions may differ. Like-named read-outs stand apart in the source and are kept apart here.
# Experiments:
# [1] = Analysis of residual cannabis material after vaporization in the MDI
# chronic neuropathic pain = settings: cited from earlier work; for reduction of pain intensity: Wilsey et al. 2013, vaporized 10.3 mg total available Δ^9-THC in two sessions
# [2] = cited from earlier work; for mean Cmax increase per mg Δ^9-THC: continuous blood withdrawal
# [3] = PK study: plasma Δ^9-THC levels after single dose inhalation from cannabis flos with the metered-dose inhaler (MDI)
# Procedure: A study was conducted in order to characterize the inter-individual variability of Δ^9-THC plasma levels during the absorption phase, upon using a hand-held metered-dose MDI device configured for pulmonary delivering pre-determined amounts of the active agent Δ^9-THC from a solid substance (cannabis-derived plant substance) upon heating the substance.
# Routine medications were continued throughout the trial.
# neuropathic pain = test: VAS pain intensity after pulmonary delivery of Δ^9-THC with the MDI; type: in vivo, human
# Procedure: (§1) The study was used to further evaluate the pharmacodynamic effect of pulmonary delivery of Δ^9-THC on pain reduction from baseline using a 10 cm visual analog scale (VAS) pain scale (0 being no pain; and 10 being worst possible pain); for monitoring adverse effects, blood pressure and heart rate, and for estimating the degree of satisfaction with the use of the MDI on a 0-10 scale.
# The study was conducted at the Pain Research Unit of Rambam Health Care Campus in Haifa, Israel.
# (§2) Pain intensity reduction was assessed as a therapeutic effect by asking participants to indicate the intensity of their current pain on a 100 mm visual analog scale (VAS) between 0 (no pain) and 100 (worst possible pain) at baseline (prior to the inhalation) and at 20 and 90 minutes following the pulmonary delivery of the pharmaceutically active agent from cannabis. Adverse effects, in the form of psychotropic symptoms, were recorded at 5, 15, 30, 60 and 120 minutes post pulmonary delivery, along with those spontaneously reported by the participants. Adverse effects were evaluated according to standardized criteria in terms of severity, frequency, duration and relationship to the study's active agent. Adverse effects were graded using the NIH Division of AIDS table for scoring severity of adult adverse experiences. Blood pressure and pulse rate were also recorded before, during and after the pulmonary delivery.
# Results are reported herein as mean values±1 standard deviation (±SD). For each one of the measured effects (VAS pain intensity, systolic and diastolic blood pressure, heart rate and satisfaction score), the mean and 95% confidence interval (CI) at different time points was plotted. Differences between VAS pain intensity values and satisfaction scores, before and after inhalation, were tested by two-tailed paired Student t-test. Blood pressure and heart rate values were compared among different time points by one-way ANOVA. P-values <0.05 were accepted as significant. All statistical analyses were performed using Minitab Statistical Software, version 16.
# [4] = Monitoring of adverse effects, blood pressure and heart rate after inhalation; type: in vivo, human
# Procedure: as §1, §2
# Results are reported herein as mean values±1 standard deviation (±SD). […]
structure (smiles),measurement,setting,value
"CCCCCc1cc(O)c2c(c1)OC(C)(C)[C@@H]1CCC(C)=C[C@@H]21 [Δ^9-THC, Δ9-tetrahydrocannabinol]",cannabinol (product of THC oxidation) in residues,[1],no increase of cannabinol
same,mean Cmax elevation,"chronic neuropathic pain; Ware et al. 2010, single smoke inhalation of 25±1 mg cannabis, 9.4% Δ^9-THC, three times a day for 5 days",0.045 µg/mL
same,"reduction of neuropathic pain (plateau, ceiling effect)","chronic neuropathic pain; Wilsey et al. 2008, smoking 19 mg or 34 mg total available Δ^9-THC in 3 doses",45%
same,reduction of pain intensity,chronic neuropathic pain; 3 hours,31%
same,reduction of pain intensity,chronic neuropathic pain; 5 hours,25%
same,mean Cmax increase per mg Δ^9-THC,[2]; after the first puff of a 1.75% Δ^9-THC cigarette,3.54 ng/ml per mg Δ^9-THC
same,mean Cmax increase per mg Δ^9-THC,[2]; after the first puff of a 3.55% Δ^9-THC cigarette,4.28 ng/ml per mg Δ^9-THC
same,plasma Cmax levels per mg of Δ^9-THC administered,[2]; intravenous administration (Ohlsson et al. 1980),43.8 ng Δ^9-THC/ml plasma
same,inter-individual variability of Cmax (coefficient of variation),[2]; oral administration,42-115%
same,inter-individual variability of Cmax (coefficient of variation),[2]; oromucosal route of delivery,59-67%
same,inter-individual variability of Cmax (coefficient of variation),[2]; smoking cigarettes,32-115%
same,inter-individual variability of Cmax (coefficient of variation),[2]; vaporizer (Abrams),47-85%
same,inter-individual variability of Cmax (coefficient of variation),[3]; MDI device,25.3%
same,AUC,"[3]; human, plasma, inhaled or intranasal, 3.08 mg, AUC (Mean), mean of 8 participants, same single dose inhalation",0.0101 µg·h/mL
same,Cmax,"[3]; human, plasma, inhaled or intranasal, 3.08 mg, Cmax (Mean), mean of 8 participants, same single dose inhalation",0.038 µg/mL
same,Tmax,"[3]; human, plasma, inhaled or intranasal, 3.08 mg, Tmax (Mean), mean of 8 participants, same single dose inhalation",3 min
same,AUC(0-inf),"[3]; human, plasma, inhaled, 3.08 mg",0.0101 µg·h/mL
same,time of first detection in blood sample,"[3]; post-inhalation, six patients without residual plasma THC at baseline",1 min
same,increase of Cmax per mg of Δ^9-THC available in the cannabis used (mean),[3]; pulmonary delivery method described herein (MDI),12.3 ng/ml/mg Δ^9-THC
same,plasma concentration profile over time,[3]; pulmonary delivery with the MDI,"rapid absorption, followed by bi-phasic decline in plasma concentration over time"
same,decrease of VAS pain intensity from baseline,"neuropathic pain; 20 minutes after inhalation, baseline 7.5±1.4, 95% CI [2.1, 4.9], P=0.001",3.4 points
same,VAS pain intensity versus baseline,neuropathic pain; 90 minutes post-dosing,virtually identical results as at baseline
same,time to reversal of pain reduction,"neuropathic pain; single inhalation, 3.08±0.02 mg total available Δ^9-THC",≤ 90 min
same,time to full recovery from light headedness,"[4]; all the other patients, post-inhalation",≤ 30 min
same,adverse effects (overall),"[4]; single dose inhalation with MDI, listed as THC","minimal, reversible and well tolerated; also recorded: minimal, reversible and receded rapidly"

# — patent US9839241B2, “Methods, devices and systems for pulmonary delivery of active agents” (priority 2014, dated 2017)
